Experimental data taken from patent US20230203485A1, “METHODS FOR MODULATING MHC-I EXPRESSION AND IMMUNOTHERAPY USES THEREOF” (Dana-Farber Cancer Institute, Inc., priority 2020, published 2023).

Key:
Assay type in all cases: cell-based, human
surface HLA-I = assay: Interferon treatment of MCC lines, surface HLA-I by flow cytometry
Procedure: Cells were dissociated with Versene and incubated with 5 μL Human TruStain FcX (Fc Receptor Blocking Solution; Biolegend #422302) per million cells in 100 μL at room temperature for 10 min. Fluorophore-conjugated antibodies or respective isotype controls were added and incubated for another 30 min at 4° C. Cells were then washed once with PBS and resuspended in PBS or 4% paraformaldehyde and analyzed on an LSR Fortessa cytometer. For HLA-I and HLA-II detection, the following antibodies were used: HLA-ABC (W6/32 clone) conjugated to PE (BioLegend #311406), APC (BioLegend #311410), or AF647 (Santa Cruz Biotechnology #sc32235 AF647), and HLA-DR-FITC (BioLegend #307604).

class I bound peptides = assay: HLA-I immunoprecipitation and LC-MS/MS immunopeptidome of cell lines +/- IFN-γ
Procedure: Up to 40 million or 0.2 g of MCC cells were immunoprecipitated. Briefly, MCC cells were harvested and lysed in ice-cold lysis buffer containing […] (pH 8.0), 1 mM EDTA (pH 8.0), 0.1M sodium chloride, Triton X-100, 0.06M octyl β-d-glucopyranoside, 100 U/mL DNAse I, 1 mM phenylmethanesulfonyl fluoride (all from Sigma Aldrich), and protease inhibitor cocktail (Roche Diagnostics). Cell lysate was centrifuged at 12,700 rpm at 4° C. for 22 min. Lysate supernatant was coupled with Gammabind Plus sepharose beads (GE Healthcare) and incubated with 10 μg of HLA-I antibody (Clone W6/32, Santa Cruz Biotechnologies) at 4° C. under rotary agitation for 3 h. After incubation, the lysate-bead-antibody mixture was briefly centrifuged and the supernatant was discarded. Beads were washed with lysis buffer, consisting of wash buffer containing 40 mM Tris (pH 8.0), 1 mM EDTA (pH 8.0), 0.1M sodium chloride, 0.06M octyl β-d-glucopyranoside, and 20 mM Tris buffer, without protease inhibitors. […] Peptides of up to three immunoprecipitations were combined, acid eluted, and analyzed using LC/MS-MS. […] Peptides were eluted in a 6-30% gradient (EasyLC 1000 or 1200, Thermo Fisher Scientific) and analyzed on a QExactive Plus, Fusion Lumos, or Orbitrap Exploris 480 (Thermo Fisher Scientific). […] Fractions were analyzed on a Fusion Lumos or Orbitrap Exploris 480 equipped with a FAIMSpro interface. […]

[1] = test system: HLA I surface expression on MCC cell lines; assay: Flow cytometry for HLA-I surface expression (anti-HLA-ABC, W6/32) in MCC lines at baseline and after interferon or MEK inhibitor treatment
Procedure: The overlaid black line plot indicates the percentage of tumor cells that stained positive for HLA-I by IHC of the corresponding original tumor (right y-axis).
Representative histogram plots show cells stained with anti-HLA class I or isotype antibodies. The experiment was performed in the MCPyV− line MCC-290 (left) and the MCPyV+ line MCC-301 (right).
Cells were dissociated with Versene and incubated with 5 μL Human TruStain FcX (Fc receptor blocking solution; Biolegend, Dedham, Mass.) per million cells in […] at room temperature for 10 min. Fluorochrome-conjugated antibodies or respective isotype controls were immediately added and incubated for another 30 min at 4° C. Cells were then washed once with PBS and resuspended in PBS containing 4% paraformaldehyde and analyzed on LSR Fortessa cytometers. Additional steps were described for individual experiments as below.

Substance: IFN-γ: interferon gamma used to stimulate MCC cell lines
- fold increase in MFI of HLA-I after IFN-γ exposure (surface HLA-I; 8 lines): ≥ 2.5 fold
- median fold increase in MFI of HLA-I after IFN-γ exposure (surface HLA-I; 8 lines): 5.7 fold
- range of fold increase in MFI of HLA-I after IFN-γ exposure (surface HLA-I; 8 lines): 2.5-12.4 fold
- fold increase in MFI of HLA-I after IFN-γ exposure (surface HLA-I; three lines (MCC-336, -350, -358)): ≤ 1.15 fold
- median fold increase in the abundance of class I bound peptides (class I bound peptides; across 7 cell lines, following IFN-γ stimulation): 12 fold
- frequencies of peptides mapping to each HLA allele (class I bound peptides; cell lines with vs without IFN-γ treatment): increase in HLA-B-presented peptides

Substance: IFN-y: type II interferon, recombinant human, used to treat MCC cells
- HLA I surface expression, median fold increase by MFI ([1]; IFN-y exposure, the 8 inducible of 11 MCC lines, pan-class I anti-HLA-ABC antibody, median): 5.7 fold
- HLA I surface expression, range of fold increase by MFI ([1]; IFN-y exposure, the 8 inducible of 11 MCC lines, range): 2.5-12.4 fold
- HLA I surface expression response ([1]; three lines: MCC-336, -350, -358): not responsive
